Source: ChEMBL document CHEMBL2429726, “Gamma secretase modulators” (ACS Med Chem Lett, 2013)

Key:
Gamma-secretase = experiment: Inhibition of gamma secretase-mediated amyloid beta42 production in HEK293 cells expressing APP after 5 hrs by sandwich immunoassay; type: cell-based, Homo sapiens
Rattus norvegicus = experiment: Antialzheimer activity in CD rat assessed as reduction of amyloid beta42 level in CSF at 30 mg/kg, po after 3 hrs relative to control; type: functional; design: scale not given: the % may be the effect or the level left

Row | Compound | IC50 (Gamma-secretase) [nM] | Activity (Rattus norvegicus) [%]
1 | COc1cc(-c2noc3c2CCCC3(O)c2cc(F)cc(F)c2)ccc1-n1cnc(C)c1 (stereo unspecified) | 190 | 20
2 | COc1cc(-c2noc3c2CCCC3Nc2ccc(F)cc2)ccc1-n1cnc(C)c1 (stereo unspecified) | 39 | 58
3 | COc1cc(-c2noc3c2CCCC3NCc2cc(F)cc(F)c2)ccc1-n1cnc(C)c1 (stereo unspecified) | 29 | 20
